The values that follow are results of earlier work, collected in publication PMC10846240, “Pharmacokinetic/pharmacodynamic integration of amphenmulin: a novel pleuromutilin derivative against Mycoplasma gallisepticum” (Microbiology Spectrum, 2023).

The structures appear in SMILES notation. In brackets after ≈: the same amount, converted by molar mass.

In data set [1] the test system is M. gallisepticum S6 strain. Also noted: method as in PMID 27656647. The note with it: same strain (S6); cited from earlier work.
The next data set has as its system M. gallisepticum. On the set-up: method as in PMID 27656647, PMID 25845865. The conditions noted are these: intratracheal infection model; cited from earlier work.
Another data set has as its system Streptococcus pneumoniae. Also noted: method as in PMID 30019769. The note with it: neutropenic murine thigh and lung infection model; cited from earlier work.
The next data set has as its system Staphylococcus aureus. On the set-up: method as in PMID 30019769. The note with it: neutropenic murine thigh and lung infection model; cited from earlier work.
Details of data set [2]: method as in PMID 26747098. The conditions noted are these: after intravenous injection; cited from earlier work.

Regarding `C=C[C@]1(C)C[C@@H](OC(=O)CSCCN(CC)CC)[C@]2(C)[C@H](C)CC[C@]3(CCC(=O)[C@H]32)[C@@H](C)[C@@H]1O` [tiamulin], in data set [1], the MIC – broadly, the smallest concentration in the dilution series that meets the test's criterion for growth inhibition – is on record as 0.03 µg/mL (≈ 0.0608 µM). In the data set on M. gallisepticum, the optimized therapeutic dosages is reported as 45 mg/kg and the “parameter most relevant to anti-mycoplasma effect” value was “AUC/MIC”.
With `C=C[C@]1(C)C[C@@H](OC(=O)CS[C@@H]2CC[C@@H](N)C[C@H]2O)[C@]2(C)[C@H](C)CC[C@]3(CCC(=O)[C@H]32)[C@@H](C)[C@@H]1O` [lefamulin], the character of activity entry with Streptococcus pneumoniae was “time- and concentration-dependent activity”; in the data set on Staphylococcus aureus it was “time- and concentration-dependent activity”. For the same compound, in data set [2], the “free drug concentration in pulmonary epithelial lining fluid relative to plasma” value is on record as 5.7 times.
On to `C=C[C@]1(C)C[C@@H](OC(=O)CSC(C)(C)CNC(=O)[C@H](N)C(C)C)[C@]2(C)[C@H](C)CC[C@]3(CCC(=O)[C@H]32)[C@@H](C)[C@@H]1O` [valnemulin], for which, in the data set on M. gallisepticum, the optimized therapeutic dosages is reported as 6.5 mg/kg and the “parameter most relevant to anti-mycoplasma effect” value is “AUC/MIC”.
